Where a name gives a salt, the structure may show the parent alone.
Biological target: T1, human histamine H3 receptor (Homo sapiens, UniProt Q9Y5N1)
T1 construct: One microgram of supercoiled H3 receptor cDNA was added to the cells and mixed; expressed in transfected cells; membranes prepared from cell pellets
Assay: {3H}-N-methylhistamine binding
Description: Transfection of Cells with Human Histamine Receptor
A 10 cm tissue culture dish with a confluent monolayer of SK-N-MC cells was split two days prior to transfection. Using sterile technique the media was removed and the cells were detached from the dish by the addition of trypsin. One fifth of the cells were then placed onto a new 10 cm dish. Cells were grown in a 37° C. incubator with 5% CO2 in Minimal Essential Media Eagle with 10%. Fetal Bovine Serum. After two days cells were approximately 80% confluent. These were removed from the dish with trypsin and pelleted in a clinical centrifuge. The pellet was then re-suspended in 400 μL complete media and transferred to an electroporation cuvette with a 0.4 cm gap between the electrodes. One microgram of supercoiled H3 receptor cDNA was added to the cells and mixed. The voltage for the electroporation was set at 0.25 kV, the capacitance was set at 960 μF. After electroporation the cells were diluted into 10 mL complete media and plated onto four 10 cm dishes. Because of the variability in the efficiency of electroporation, four different concentrations of cells were plated. The ratios used were; 1:20, 1:10, 1:5, with the remainder of the cells being added to the fourth dish. […] After 10 days dishes were analyzed for surviving colonies of cells. Dishes with well-isolated colonies were used. Cells from individual colonies were isolated and tested. SK-N-MC cells were used because they give efficient coupling for inhibition of adenylate cyclase. The clones that gave the most robust inhibition of adenylate cyclase in response to histamine were used for further study.
{^3H}-N-methylhistamine Binding
Cell pellets from histamine H3 receptor-expressing SK-N-MC cells were homogenized in 20 mM TrisHCl/0.5 mM EDTA. Supernatants from an 800 g spin were collected, recentrifuged at 30,000 g for 30 min. Pellets were re-homogenized in 50 mM Tris/5 mM EDTA (pH 7.4). […] Filters were dried, added to 4 mL scintillation cocktail and then counted on a liquid scintillation counter. Non-specific binding was defined with 10 μM histamine.

T1 sequence (Q9Y5N1 whole entry): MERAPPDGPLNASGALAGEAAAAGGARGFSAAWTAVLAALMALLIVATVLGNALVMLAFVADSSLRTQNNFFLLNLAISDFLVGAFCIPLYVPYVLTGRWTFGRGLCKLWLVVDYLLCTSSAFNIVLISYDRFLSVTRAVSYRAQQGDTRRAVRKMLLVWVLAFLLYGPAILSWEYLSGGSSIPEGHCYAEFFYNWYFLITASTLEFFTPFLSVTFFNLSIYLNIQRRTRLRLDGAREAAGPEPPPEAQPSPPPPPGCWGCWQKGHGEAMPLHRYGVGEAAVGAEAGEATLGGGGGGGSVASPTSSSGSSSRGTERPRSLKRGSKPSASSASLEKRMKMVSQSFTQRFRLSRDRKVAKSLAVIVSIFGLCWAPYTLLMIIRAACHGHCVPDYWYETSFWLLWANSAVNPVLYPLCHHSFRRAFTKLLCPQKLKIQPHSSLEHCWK

SMILES	Ki
CN1CCN(C(=O)c2cccc(CN3CCC(Cc4ccccc4)CC3)c2)CC1 [Example 42, {3-(4-Benzyl-piperidin-1-ylmethyl)-phenyl}-(4-methyl-piperazin-1-yl)-methanone]	800 nM
CCCCN1CCN(C(=O)c2ccc(CN(C)C)cc2)CC1 [Example 30, (4-Butyl-piperazin-1-yl)-(4-dimethylaminomethyl-phenyl)-methanone]	18 nM
CC(C)N1CCN(C(=O)c2ccc(CNc3ccc(C(F)(F)F)nc3)cc2)CC1 [Example 52, (4-Isopropryl-piperazin-1-yl)-{4-{(6-trifluoromethyl-pyridin-3-ylamino)-methyl}-phenyl}-methanone dihydrochloride]	14 nM
CCCCN1CCN(C(=O)c2ccc(CNc3ccc(C(F)(F)F)cc3)cc2)CC1 [Example 31, (4-Butyl-piperazin-1-yl)-{4-{(4-trifluoromethyl-phenylamino)-methyl}-phenyl}-methanone]	630 nM
CC(C)N1CCN(C(=O)c2cccc(CN3CCOCC3)c2)CC1 [Example 38, (4-Isopropyl-piperazin-1-yl)-(3-morpholin-4-ylmethyl-phenyl)-methanone]	180 nM
CC(C)N1CCN(C(=O)c2ccc(CNc3ccc(Cl)cn3)cc2)CC1 [Example 53, {4-{(5-Chloro-pyridin-2-ylamino)-methyl}-phenyl}-4-isopropyl-piperazin-1-yl)-methanone dihydrochloride]	30 nM

The next compounds have a lower Ki than those just listed; values first:

Ki	SMILES
0.9 nM	CCC(C)N1CCN(C(=O)c2ccc(CN3CCCCCC3)cc2)CC1 (stereo not drawn) [Example 23, (4-Azepan-1-ylmethyl-phenyl)-(4-sec-butyl-piperazin-1-yl)-methanone]
0.9 nM	CCC(C)N1CCN(C(=O)c2ccc(CN3CCCCC3)cc2)CC1 (stereo not drawn) [Example 28, (4-sec-Butyl-piperazin-1-yl)-(4-piperidin-1-ylmethyl-phenyl)-methanone]
9 nM	CCCCN1CCN(C(=O)c2ccc(CN3CCOCC3)cc2)CC1 [Example 37, (4-Butyl-piperazin-1-yl)-(4-morpholin-4-ylmethyl-phenyl)-methanone]
2 nM	CCCN(CCOC)Cc1ccc(C(=O)N2CCN(C(C)C)CC2)cc1 [Example 68, (4-Isopropyl-piperazin-1-yl)-(4-{[(2-methoxy-ethyl)-propyl-amino]-methyl}-phenyl)-methanone]
2 nM	COCCNCc1ccc(C(=O)N2CCN(C(C)C)CC2)cc1 [Example 70, (4-Isopropyl-piperazin-1-yl)-{4-[(2-methoxy-ethylamino)-methyl]-phenyl}-methanone]
1 nM	CCC(CC)N1CCN(C(=O)c2ccc(CN3CCOCC3)cc2)CC1 [Example 48, {4-(1-Ethyl-propyl)-piperazin-1-yl}-(4-morpholin-4-ylmethyl-phenyl)-methanone dihydrochloride]
